Values of other authors as cited in patent US20110237609A1, “ANTIFOLATE COMPOSITIONS” (Chelsea Therapeutics, Inc., priority 2010, published 2011).

Experiments:
[1] = in words; b190 refers to US 20090253720
[2] = in words, background statement

Row | Structure (SMILES) | solubility characteristics [1] | bioavailability [2]
1 | C=C(CC(NC(=O)c1ccc(CCc2ccc3nc(N)nc(N)c3c2)cc1)C(=O)O)C(=O)O (stereo not drawn) | improved solubility characteristics in comparison to the dioic acid form | 
2 | C=C(CC(NC(=O)c1ccc(CCc2ccc3nc(N)nc(N)c3c2)cc1)C(=O)O)C(=O)O (racemic) [compound of Formula (9), 2-{-4-[2-(2,4-diamino-quinazolin-6-yl)-ethyl]-benzoylamino}-4-methylene-pentanedioic acid] | low solubility | low bioavailability
